Results from patent US5340811A, “Isoquinoline-or quinoline-sulfonamide derivative and a pharmaceutical composition comprising the same” (priority 1990, dated 1994).
Structures can show the parent of a compound that is named as a salt.

Key:
[1] = known from literature/patents; cited from earlier work
[2] = known from literature/patents; cited from earlier work; remark: listed apart in the source
[3] = system: trachea of a guinea pig; experiment: Effect on trachea in vivo: inhibition of histamine-induced tracheal contraction (modified Konzett-Rossler method); conditions: for suppression of histamine-induced bronchial contraction: contraction induced by intravenous administration of 1 mg/kg of histamine (as printed in text); for inhibition in vivo at 1 mg/kg: Cavia porcellus, iv, 0.05 h, compound 1 mg/kg via femoral vein, histamine 20 μg/kg i.v. after 3 minutes, urethane anesthesia, n=3, non-salt compounds used as hydrochloride
Text: According to a modified method of Konzett-Rossler method [see J. Martinez et al, Bronchial Arterial Injections, vol. […] Urethane was intraperitoneally administered to male guinea pigs weighing 350 to 600 g (Hartley strain, Kuroda Junkei Dobutsu) in an amount of 1.5 g/kg of body weight to anesthetize the animals. Then, cannulae were inserted into the trachea and femoral vein of each animal under urethane anesthesia and fixed. […] Each of the above-mentioned compounds of the present invention was administered to guinea pigs through the femoral vein in an amount of 1 mg/kg of body weight. […] As a solvent for each compound, physiological saline was used. The number of the guinea pigs tested in each group was 3.

[4] = system: tracheal specimens excised from guinea pigs; experiment: Inhibitory effect on KCl-induced contraction of tracheal specimens excised from guinea pigs; assay type: cell-based, guinea pig; conditions: Cavia porcellus; dose relaxing KCl (20 mM)-induced contraction to 50%; 37° C.; n=3; non-salt compounds used as hydrochloride; read-out: ED50 (KCl-induced contraction)
Text: According to a method in which tracheal specimens excised from guinea pigs were used (Takagi and Ozawa, "Yakubutsugaku Jikken (Experiments in Pharmacology)", pp.100-102, 1960, published by Nanzando Japan; and Fujiwara and Shibata, "Yakurigaku Kiso Jikenho (Methods of Fundamental Experiments in Pharmacology)" pp.131-134, 1982, published by Kyourin, Japan), relaxing effect of sulfonamide derivatives of the present invention on bronchial smooth muscle was examined. […] After the KCl-induced contraction became stable, each of the compounds of the present invention was dissolved in distilled water or physiological saline, and the compound solution was cumulatively added into the Magnus tube. The relaxing effect of each of the compounds of the present invention on contracted tracheal specimens was evaluated and a dose-response curve was obtained. A dose required for relaxing KCl-induced contraction to 50%, i.e., ED50 was calculated from the dose-response curve. […] The number of tracheal specimens in each group was 3.

[5] = system: tracheal specimens excised from guinea pigs; experiment: Inhibitory effect on PGF2α-induced contraction of tracheal specimens excised from guinea pigs; assay type: cell-based, guinea pig; conditions: Cavia porcellus; dose relaxing PGF2α (final 1 μm)-induced contraction to 50%; n=3; non-salt compounds used as hydrochloride; read-out: PGF2α-induced contraction ED50 (Table 18)
Description: Tracheal specimens excised from male guinea pigs weighing 350 to 500 g (Hartley strain, Kuroda Junkei Dobutsu) were contracted in substantially the same manner as in Application Example 1 except that PGF2α (final concentration: 1 μm) was used instead of KCl. After the contraction of the tracheal specimens became stable, each of the compounds (hydrochloride) of the present invention was dissolved in distilled water or physiological saline, and the compound solution was cumulatively added into the Magnus tube in the same manner as in Application Example 1. The relaxing effect of each of the compounds of the present invention on the contracted specimens was evaluated and a dose-response curve was obtained. The dose required for relaxing PGF2α-induced contraction to 50%, i.e., ED50 was calculated form the dose-response curve. […] For comparison, the same procedure as described above was repeated except that aminophylline, comparative compound (1) and comparative compound (2) were individually used instead of the compound of the present invention, to obtain an ED50. The number of specimens in each group was 3.

Compound: NC1CCCN(S(=O)(=O)c2cccc3cnccc23)C1 (stereo not shown) [1-(5-isoquinolinesulfonyl)-3-aminopiperidine]
- bronchodilating activity [1]: bronchodilating activity
- vasodilating activity [2]: vasodiletic activity

Compound: O=S(=O)(NCCNCc1ccc2c(c1)OCO2)c1cccc2cnccc12 [(3), N-[2(3,4-methylenedioxybenzylamino)ethyl]-5-isoquinolinesulfonamide]
- suppression of histamine-induced bronchial contraction [3]: 36%

Compound: O=S(=O)(NCCN1CCN(Cc2ccc3c(c2)OCO3)CC1)c1cccc2cnccc12 [(30), 1-(5-isoquinolinesulfonylaminoethyl)-4-(3,4-methylenedioxybenzyl)piperazine]
- inhibition in vivo at 1 mg/kg [3]: 31%

Compound: O=S(=O)(NCCN1CCCN(Cc2ccc3c(c2)OCO3)CC1)c1cccc2cnccc12 [(31), 1-(5-isoquinolinesulfonylaminoethyl)-4-(3,4-methylenedioxybenzyl)homopiperazine]
- inhibition in vivo at 1 mg/kg [3]: 35%

Compound: O=S(=O)(NCCN1CCNCC1)c1cccc2c(O)nccc12 [(32), 1-(1-hydroxy-5-isoquinolinesulfonylaminoethyl) piperazine hydrochloride]
- EC50 [4]: 27 µM

Compound: O=S(=O)(NCCN1CCCNCC1)c1cccc2c(O)nccc12 [(33), 1-(1-hydroxy-5-isoquinolinesulfonylaminoethyl) homopiperazine hydrochloride]
- EC50 [4]: 24 µM

Compound: O=S(=O)(NCCN1CCCN(Cc2ccc3c(c2)OCO3)CC1)c1cccc2c(O)nccc12 [(35), hydrochloride]
- EC50 [4]: 18 µM

Compound: O=S(=O)(NCCN1CCCNCC1)c1ccc(Cl)c2ncccc12 [(36), 1-(8-chloro-5-quinolinesulfonylaminoethyl)homopiperazine]
- inhibition in vivo at 1 mg/kg [3]: 22%

Compound: O=S(=O)(NCCN1CCCN(Cc2ccc3c(c2)OCO3)CC1)c1ccc(Cl)c2ncccc12 [(38), 1-(8-chloro-5-quinolinesulfonylaminoethyl)-4-(3,4-methylenedioxybenzyl)homopiperazine]
- inhibition in vivo at 1 mg/kg [3]: 45%
- suppression of histamine-induced bronchial contraction [3]: 45%

Compound: Cn1c(=O)c2[nH]cnc2n(C)c1=O [Aminophylline, aminophylline]
- EC50 [5]: ≥ 200 µM
- suppression of histamine-induced bronchial contraction [3]: 7%

Compound: CCCCCCN(CCN)S(=O)(=O)c1cccc2cnccc12.Cl [Comparative compound (1), N-(2-aminoethyl)-N-hexyl-5-isoquinolinesulfonamide hydrochloride]
- suppression of histamine-induced bronchial contraction [3]: 9%

Compound: Cl.NC1CCCN(S(=O)(=O)c2cccc3cnccc23)C1 (stereo not shown) [Comparative compound (2), 1-(5-isoquinolinesulfonyl)-3-aminopiperidine hydrochloride]
- suppression of histamine-induced bronchial contraction [3]: 12%

Compound: CCCCCCN(CCN)S(=O)(=O)c1cccc2cnccc12 [N-(2-aminoethyl)-N-hexyl-5-isoquinolinesulfonamide]
- bronchodilating activity [1]: bronchodilating activity
- vasodilating activity [2]: vasodiletic activity

Compound: N=C(N)NCCNS(=O)(=O)c1cccc2cnccc12 [N-(2-guanidinoethyl)-5-isoquinolinesulfonamide]
- bronchodilating activity [1]: bronchodilating activity
- vasodilating activity [2]: vasodiletic activity
